Source: US20240391936A1, “TETRAHYDROTHIENO PYRIDINE DERIVATIVES AS DDRS INHIBITORS” (CHIESI FARMACEUTICI S.P.A., priority 2021, published 2024)

Key:
[1] = target: T1, DDR1 (Homo sapiens, UniProt Q08345); assay: DDR1 binding assay (LanthaScreen Europium Kinase Binding assay); parameters: purchased Carna Biosciences; conditions: binding assay, 5 nM DDR1, 20 nM Kinase Tracer 178; Ki from IC50 by Cheng-Prusoff; read-out: Ki DDR1
Protocol: (§1) DDR1 and DDR2 binding assays were performed using Life Technologies LanthaScreen™ Europium Kinase Binding assay. The compounds were incubated with 5 nM DDR1 (Carna Biosciences) or 5 nM DDR2 (Life Technologies) for 1 hour at room temperature in white 384-well OptiPlate (PerkinElmer), containing 20 nM or 10 nM Kinase Tracer 178 respectively and 2 nM Europium labelled anti-GST antibody (Life Technologies) in assay buffer (50 mM HEPES pH 7.5, 10 mM MgCl2, 1 mM EGTA and 0.01% BRIJ35).
(§2) The ratio of fluorescence emission 665 nm/615 nm after excitation at 340 nm was obtained using the Tecan Spark 20M plate reader. IC50 values were determined in GraphPad Prism 7.0 software, using 4 parameter model: log(inhibitor) vs. response. IC50 values were converted in Ki using the Cheng-Prusoff equation

[2] = target: T2, DDR2 (Homo sapiens, UniProt Q16832); assay: DDR2 binding assay (LanthaScreen Europium Kinase Binding assay); parameters: purchased Life Technologies; conditions: binding assay, 5 nM DDR2, 10 nM Kinase Tracer 178; Ki from IC50 by Cheng-Prusoff; read-out: Ki DDR2
T2 sequence (Q16832 22-855): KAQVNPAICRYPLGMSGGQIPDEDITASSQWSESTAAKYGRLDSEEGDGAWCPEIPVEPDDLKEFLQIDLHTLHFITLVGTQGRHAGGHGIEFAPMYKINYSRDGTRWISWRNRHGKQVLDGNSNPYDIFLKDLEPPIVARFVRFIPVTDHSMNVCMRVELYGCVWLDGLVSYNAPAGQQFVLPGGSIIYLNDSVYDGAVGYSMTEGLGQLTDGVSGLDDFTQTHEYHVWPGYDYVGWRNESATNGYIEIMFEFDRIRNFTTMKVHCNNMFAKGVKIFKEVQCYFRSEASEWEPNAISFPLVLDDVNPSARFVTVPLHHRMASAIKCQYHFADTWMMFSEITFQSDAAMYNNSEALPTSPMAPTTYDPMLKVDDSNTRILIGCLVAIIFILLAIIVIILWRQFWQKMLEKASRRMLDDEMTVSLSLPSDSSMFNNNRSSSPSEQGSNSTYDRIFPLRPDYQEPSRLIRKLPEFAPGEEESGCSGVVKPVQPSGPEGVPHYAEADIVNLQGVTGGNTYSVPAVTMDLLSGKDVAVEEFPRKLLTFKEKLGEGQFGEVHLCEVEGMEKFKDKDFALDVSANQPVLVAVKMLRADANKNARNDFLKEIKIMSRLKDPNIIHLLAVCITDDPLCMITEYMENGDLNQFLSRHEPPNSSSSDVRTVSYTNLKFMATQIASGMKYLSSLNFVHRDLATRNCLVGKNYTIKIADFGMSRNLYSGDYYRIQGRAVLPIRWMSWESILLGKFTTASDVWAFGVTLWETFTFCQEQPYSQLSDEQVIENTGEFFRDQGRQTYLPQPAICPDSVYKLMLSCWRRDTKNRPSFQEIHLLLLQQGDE
Protocol: as §1, §2

[3] = target: T1, DDR1; assay: DDR1 cell based assay (PathHunter U2OS DDR1 assay); parameters: host or cells: U2OS-DDR1 (PathHunter); conditions: U2OS-DDR1 cells, bovine Type II Collagen 20 μg/ml
Protocol: The inhibition of DDR1 receptor activation by compounds was evaluated by PathHunter® U2OS DDR1 assay (Eurofins DiscoverX), according to the manufacturer's instructions. Briefly, U2OS-DDR1 cells were seeded in white 384-well plates at a density of 5000 cells/well and incubated for 2 hours at 37° C. and 5% CO2. Cells were then treated with compounds at different concentrations and incubated for 30 minutes, before stimulation with bovine Type II Collagen 20 μg/ml and incubation overnight at 37° C. and 5% CO2. PathHunter Detection Reagents were prepared according to the protocol provided by DiscoverX and 20 μl/well of this mix were added to each well. After incubating the plates for 1 hour at room temperature in the dark, luminescence signal was acquired with a plate reader. Raw data were normalized to vehicle control (0% for normalization) and positive control (100% for normalization; cells treated with 20 μg/ml collagen II) and IC50 parameters were calculated in GraphPad Prism 8.0 software, using sigmoidal dose-response curve fitting with variable slope.

T1 sequence (Q08345 19-913): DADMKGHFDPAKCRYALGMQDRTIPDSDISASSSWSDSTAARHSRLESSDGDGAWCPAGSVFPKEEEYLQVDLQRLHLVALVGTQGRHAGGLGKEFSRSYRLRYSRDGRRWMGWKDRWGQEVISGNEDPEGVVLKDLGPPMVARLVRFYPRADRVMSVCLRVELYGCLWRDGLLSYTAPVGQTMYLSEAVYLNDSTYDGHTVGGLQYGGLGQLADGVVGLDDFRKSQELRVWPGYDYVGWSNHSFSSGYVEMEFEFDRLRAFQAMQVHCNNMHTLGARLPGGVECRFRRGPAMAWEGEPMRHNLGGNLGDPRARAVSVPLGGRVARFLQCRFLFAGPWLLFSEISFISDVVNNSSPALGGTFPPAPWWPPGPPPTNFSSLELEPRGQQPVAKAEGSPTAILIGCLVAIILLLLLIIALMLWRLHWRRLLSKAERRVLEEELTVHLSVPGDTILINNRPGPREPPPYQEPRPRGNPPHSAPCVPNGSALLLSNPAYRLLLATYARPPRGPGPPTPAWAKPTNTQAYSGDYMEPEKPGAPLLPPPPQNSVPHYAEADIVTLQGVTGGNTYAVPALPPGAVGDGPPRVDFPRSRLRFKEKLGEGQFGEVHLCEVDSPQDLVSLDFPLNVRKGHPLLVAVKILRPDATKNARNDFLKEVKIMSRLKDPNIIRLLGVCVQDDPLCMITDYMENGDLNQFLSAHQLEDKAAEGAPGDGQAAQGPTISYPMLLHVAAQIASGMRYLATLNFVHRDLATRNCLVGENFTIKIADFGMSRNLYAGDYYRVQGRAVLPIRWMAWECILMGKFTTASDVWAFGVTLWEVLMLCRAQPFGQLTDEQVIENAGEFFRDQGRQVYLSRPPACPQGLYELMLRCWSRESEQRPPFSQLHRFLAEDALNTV

| Compound | Ki [1] | Ki [2] | IC50 [3] |
| --- | --- | --- | --- |
| O=C(Nc1ccc(CN2CCCC2)c(C(F)(F)F)c1)c1csc2c1CCN(C(=O)c1cnc3ccccn13)C2 [Example 22, 6-(imidazo[1,2-a]pyridine-3-carbonyl)-N-(4-(pyrrolidin-1-ylmethyl)-3-(trifluoromethyl)phenyl)-4,5,6,7-tetrahydrothieno[2,3-c]pyridine-3-carboxamide] | < 25 nM | < 25 nM | 50 to 80 nM |
| CN(C)CCOc1cc(NC(=O)c2csc3c2CCN(C(=O)c2cnc4ccccn24)C3)cc(C(F)(F)F)c1 [Example 25, N-(3-(2-(dimethylamino)ethoxy)-5-(trifluoromethyl)phenyl)-6-(imidazo[1,2-a]pyridine-3-carbonyl)-4,5,6,7-tetrahydrothieno[2,3-c]pyridine-3-carboxamide] | < 25 nM | < 25 nM | 25 to 50 nM |
| O=C(Nc1cc(OCCN2CCCC2)cc(C(F)(F)F)c1)c1csc2c1CCN(C(=O)c1cnc3ccccn13)C2 [Example 26, 6-(imidazo[1,2-a]pyridine-3-carbonyl)-N-(3-(2-(pyrrolidin-1-yl)ethoxy)-5-(trifluoromethyl)phenyl)-4,5,6,7-tetrahydrothieno[2,3-c]pyridine-3-carboxamide] | < 25 nM | < 25 nM | 25 to 50 nM |
| CN(C)Cc1ccc(NC(=O)c2csc3c2CCN(C(=O)c2cnc4ccccn24)C3)cc1C(F)(F)F [Example 27] | < 25 nM | < 25 nM | 25 to 50 nM |
| O=C(Nc1cncc(C(F)(F)F)c1)c1csc2c1CCN(C(=O)c1cnc3ccccn13)C2 [Example 28, 6-(imidazo[1,2-a]pyridine-3-carbonyl)-N-(5-(trifluoromethyl)pyridin-3-yl)-4,5,6,7-tetrahydrothieno[2,3-c]pyridine-3-carboxamide] | < 25 nM | < 25 nM | < 25 nM |
| O=C(Nc1cc(C(F)(F)F)ccn1)c1csc2c1CCN(C(=O)c1cnc3ccccn13)C2 [Example 29, 6-(imidazo[1,2-a]pyridine-3-carbonyl)-N-(4-(trifluoromethyl)pyridin-2-yl)-4,5,6,7-tetrahydrothieno[2,3-c]pyridine-3-carboxamide] | < 25 nM | < 25 nM | 50 to 80 nM |
| O=C(Nc1nccc(C(F)(F)F)n1)c1csc2c1CCN(C(=O)c1cnc3ccccn13)C2 [Example 30, 6-(imidazo[1,2-a]pyridine-3-carbonyl)-N-(4-(trifluoromethyl)pyrimidin-2-yl)-4,5,6,7-tetrahydrothieno[2,3-c]pyridine-3-carboxamide] | < 25 nM | < 25 nM | 50 to 80 nM |
| CN1CCC(Oc2ccc(NC(=O)c3csc4c3CCN(C(=O)c3cnc5ccccn35)C4)cc2C(F)(F)F)C1 (stereo not drawn) [Example 31, 6-(imidazo[1,2-a]pyridine-3-carbonyl)-N-(4-((1-methylpyrrolidin-3-yl)oxy)-3-(trifluoromethyl)phenyl)-4,5,6,7-tetrahydrothieno[2,3-c]pyridine-3-carboxamide] | < 25 nM | < 25 nM | 50 to 80 nM |
| CN1CCC(Oc2ccc(NC(=O)c3csc4c3CCN(C(=O)c3cnc5ccccn35)C4)cc2C(F)(F)F)CC1 [Example 32, 6-(imidazo[1,2-a]pyridine-3-carbonyl)-N-(4-((1-methylpiperidin-4-yl)oxy)-3-(trifluoromethyl)phenyl)-4,5,6,7-tetrahydrothieno[2,3-c]pyridine-3-carboxamide] | < 25 nM | < 25 nM | 25 to 50 nM |
| CC(C)(C)c1cc(NC(=O)c2csc3c2CCN(C(=O)c2cnc4ccccn24)C3)no1 [Example 33, N-(5-(tert-butyl)isoxazol-3-yl)-6-(imidazo[1,2-a]pyridine-3-carbonyl)-4,5,6,7-tetrahydrothieno[2,3-c]pyridine-3-carboxamide] | < 25 nM | < 25 nM | 25 to 50 nM |
